Key:
[1] = test system: Bcl-2 expression in HepG2 cells; experiment: Western blot, Bcl-2 expression in HepG2 cells; assay type: cell-based, human; details: HepG2, 1.0, 2.0, and 4.0 μM
Procedure: (§1) The HepG2 cells were treated with BAP 96 at different concentrations (1.0, 2.0, and 4.0 µM) for 3 h, and washed twice by PBS. The cells were lysed and the extracted proteins of cell lysates were separated by 10% SDS-PAGE gel electrophoresis, then transferred onto polyvinylidene fluorides membranes. The membranes were probed with antibodies and visualized using an enhanced chemiluminescence (ECL) detection kit.

[2] = test system: human liver hepatocellular carcinoma cell line (HepG2); experiment: Cytotoxicity, MTT assay, HepG2; assay type: cell-based; details: for IC50: MTT, 24 h
From the text: (§2) Compounds 83–102 were screened against human neoplastic cell lines, such as human breast cancer cells (MCF-7), human colon cancer cells (HCT116), human lung carcinoma cells (A549), human gastric adenocarcinoma cells (SGC7901), human liver hepatocellular carcinoma cell line (HepG2), human cervical carcinoma cells (HeLa), human acute mononuclear granulocyte leukaemia (THP-1), and human normal hepatic cell line (LO2) using modified MTT assay. All the cells were obtained from the American Type Culture Collection (ATCC, Manassas, VA). The cells were cultured in DMEM or 1640. Positive controls (Doxorubicin (DOX) and Curcumin) and BAPs were initially dissolved in dimethyl sulphoxide (DMSO). Experimental concentration of DMSO was always 0.1% (v/v). The concentrations of BAPs and positive controls were 50, 20, 10, 5, 2.5, 1, 0.5, 0.1, 0.05, and 0.01 μg/mL.
(§3) The cells (1 × 10^4 cells/well) were seeded in a 96-well plate and incubated for 24 h. Cells treated with serial concentrations of drugs were incubated for another 24 h. After the media removed, 20 μL of MTT (5 mg/mL) solution was added and incubated for 4 h at 37 °C. The MTT solution was removed and then 150 μL of DMSO was added. The optical density was measured with a multi-well plate reader (TECAN, Mӓnnedorf, Switzerland) at 570 nm. The results are expressed as a decrease in the cell viability (%) in comparison to untreated controls. The concentration of each compound was examined in triplicate, and the IC50 values are expressed in Table 1.

[3] = test system: TNF-α production in LPS-stimulated RAW264.7 cells; experiment: TNF-α production in LPS-stimulated RAW264.7 cells, ELISA; assay type: cell-based; details: BAPs 6.0 μM, PDTC 30 μM, LPS 1.0 μg/mL
Procedure: The anti-inflammatory activities of BAPs were evaluated by ELISA. After pretreated with 30 μM of positive drug pyrrolidinedithiocarbamate (PDTC) or 6 μM of BAPs for 2 h, cells were treated with LPS (1.0 μg/mL) for 22 h. The culture media were collected and centrifuged for detecting the expression levels of TNF-α by an ELISA kit (eBioScience, San Diego, CA).
TNF-α is a common pro-inflammatory factors that can be produced by LPS-stimulated RAW264.7 macrophage[14]^,[24]. In order to evaluate the anti-inflammatory activity of BAPs, the effect of BAPs on TNF-α production in LPS-stimulated RAW264.7 cells was detected by ELISA. […] Only 92 presented slightly lower expression of TNF-α secretion (about 57%).

[4] = test system: BAX expression in HepG2 xenografts; experiment: Western blot, BAX in HepG2 xenografts; assay type: in vivo, Balb/c nude mice; details: 0.2, 1.0 and 5.0 mg/kg
Procedure: (§4) The HepG2 cells xenografts were established using the Balb/c nude mice (female, 7-week-old, 17–19 g, n = 30) (Shanghai Laboratory Animal Center, Shanghai Shi, China) were used to investigate the anti-hepatoma effect of 96. Animal experiments were reviewed and approved by the Binzhou Medical University Experimental Animal Committee. Briefly, HepG2 cells (1 × 10^7/0.2 ml PBS/mouse) were inoculated subcutaneously. Three days after the inoculation, the mice were randomly divided into five groups: the saline treated group (Control), 96 (0.2 mg/kg) group, 96 (1.0 mg/kg) treated group, 96 (5.0 mg/kg) treated group, and DOX (1.0 mg/kg) treated group. 96 were dissolved in saline containing 1% of DMSO and administered intraperitoneally every 2 d for 20 days. DOX was also administered intraperitoneally every 2 d for 20 d. The body weight and HepG2 xenografts volumes were recorded from the day of treatment, and xenografts volumes were calculated using the equation: tumour volume = length×(width)[2]×π/6. At the end of the experiment, mice were sacrificed and the xenografts were obtained for western blotting, HE staining and immunohistochemistry staining.
(§5) Western blotting was performed to detect the expression of Bcl-2, Bax and C-caspase-3 in HepG2 xenografts. Fresh HepG2 xenografts tissues were lysed and the obtained proteins were processed as the protein obtained from the HepG2 cells.

[5] = test system: Bcl-2 expression in HepG2 xenografts; experiment: Western blot, Bcl-2 in HepG2 xenografts; assay type: in vivo, Balb/c nude mice; details: 0.2, 1.0 and 5.0 mg/kg
Procedure: as §4, §5

[6] = test system: p-IκBα in LPS-stimulated RAW264.7 cells; experiment: LPS-stimulated phosphorylation of IκBα in RAW264.7 cells; assay type: cell-based; details: RAW264.7, 1.0, 2.0, 4.0 μM
Procedure: as §1
(§6) It is known that NF-κB has been implicated in the crossroad of inflammation and cancer[25]^,[26]. In our previous study, some BAPs (such as 23 and 67) could inhibit NF-κB activation by inhibiting the phosphorylation of NF-κB (P65) and IκB[13]^,[14]. Herein, it is an urgent to resolve whether 96 has the same mechanism of action as 23 and 67. Therefore, the RAW264.7 cells were pretreated with LPS, and then treated with different concentrations (1.0, 2.0, 4.0 μM) of 96. […] Similarly, the HepG2 cells were pretreated with TNF-α, then treated with different concentrations (1.0, 2.0, and 4.0 μM) of 96.

[7] = test system: p-p65 in LPS-stimulated RAW264.7 cells; experiment: LPS-stimulated phosphorylation of p65 in RAW264.7 cells; assay type: cell-based; details: RAW264.7, 1.0, 2.0, 4.0 μM
Procedure: as §1, §6

[8] = test system: human lung carcinoma cells (A549); experiment: Cytotoxicity, MTT assay, A549; assay type: cell-based; details: for IC50: MTT, 24 h
From the text: as §2, §3

[9] = quotient of IC50 towards LO2 cells

Q: With `CN1CC(=Cc2cccc(N=Cc3cc(Br)ccc3O)c2)C(=O)C(=Cc2ccccc2F)C1` [Compound 96] as the compound, how does the “Expression of anti-apoptotic protein Bcl-2” value [1] read?
A: decreased in a dose-dependent manner

Q: And the IC50 ([2]; Homo sapiens, HepG2, 24 h)?
A: < 2000 nM

Q: And the IC50 [2]?
A: 1000 ± 400 nM

Q: And the “HepG2 SI (selectivity index)” value [2, 9]?
A: 19.9

Q: And the “Inhibition of TNF-α secretion compared with PDTC (in words)” value [3]?
A: strongest inhibitory effect

Q: What about the TNF-α secretion [3] of the same compound?
A: 45%

Q: And the “Expression of BAX in HepG2 xenografts” value [4]?
A: significantly increased in a dose-dependent manner

Q: What about the “Expression of Bcl-2 in HepG2 xenografts” value [5] of the same compound?
A: dose-dependently decreased

Q: What about the “Expression level of LPS-induced p-IκBα” value [6] of the same compound?
A: effectively decreased in a dose-dependent manner

Q: And the “Expression level of LPS-induced p-p65” value [7]?
A: effectively decreased in a dose-dependent manner

Q: And the IC50 ([8]; Homo sapiens, A549, 24 h)?
A: < 2000 nM

Q: And the IC50 [8]?
A: 1600 ± 400 nM

Q: What about the “A549 SI (selectivity index)” value [8, 9] of the same compound?
A: 12.4
